Experimental data as given in the supplement of paper PMC10307832.

Tests used:
Assay in all cases: relative viability (nuclei count vs DMSO), 5 days (fraction); higher = more cells survive
Ponatinib + OSI-027 = compound: Cc1ccc(C(=O)Nc2ccc(CN3CCN(C)CC3)c(C(F)(F)F)c2)cc1C#Cc1cnc2cccnn12 [Ponatinib] + COc1cccc2cc(-c3nc([C@H]4CC[C@H](C(=O)O)CC4)n4ncnc(N)c34)[nH]c12 [OSI-027] (partner 0.5 µM)
How it was run: (§1)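 Nuclei were stained with Hoechst during a one-step fixation (final 0.05% Triton X-100, 1% formaldehyde, 1 ug/ml Hoechst) carried out 5 days after dosing, then counted on 4× images. The cells, lung cancer lines in 1536-well plates, had been dosed by pin tool the day after seeding with one drug alone or a fixed anchor-drug dose plus five library-drug doses (not always all listed) in √10 steps. Relative viability is the nuclei count in treated wells divided by that in vehicle wells, and each value is the median of duplicate plates.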

Ponatinib + Olaparib = compound: Cc1ccc(C(=O)Nc2ccc(CN3CCN(C)CC3)c(C(F)(F)F)c2)cc1C#Cc1cnc2cccnn12 [Ponatinib] + O=C(c1cc(Cc2n[nH]c(=O)c3ccccc23)ccc1F)N1CCN(C(=O)C2CC2)CC1 [Olaparib] (partner 8 µM)
How it was run: as §1

Ponatinib + Phenformin = compound: Cc1ccc(C(=O)Nc2ccc(CN3CCN(C)CC3)c(C(F)(F)F)c2)cc1C#Cc1cnc2cccnn12 [Ponatinib] + N=C(N)NC(=N)NCCc1ccccc1 [Phenformin] (partner 250 µM)
How it was run: as §1

Pazopanib + Luminespib = compound: Cc1ccc(Nc2nccc(N(C)c3ccc4c(C)n(C)nc4c3)n2)cc1S(N)(=O)=O [Pazopanib] + CCNC(=O)c1noc(-c2cc(C(C)C)c(O)cc2O)c1-c1ccc(CN2CCOCC2)cc1 [Luminespib] (partner 0.01 µM)
How it was run: as §1

For UMC-11, the relative viability (Ponatinib + OSI-027; first compound 0.002 µM) was 0.47, the relative viability (Ponatinib + OSI-027; first compound 0.006325 µM) was 0.49 and the relative viability (Ponatinib + OSI-027; first compound 0.06325 µM) was 0.555. The relative viability (Ponatinib + OSI-027; first compound 0.2 µM) was 0.525, the relative viability (Ponatinib + Olaparib; first compound 0.002 µM) was 0.405 and the relative viability (Ponatinib + Olaparib; first compound 0.006325 µM) was 1.01. It also gave a relative viability (Ponatinib + Olaparib; first compound 0.06325 µM) of 0.338, a relative viability (Ponatinib + Olaparib; first compound 0.2 µM) of 0.366 and a relative viability (Ponatinib + Phenformin; first compound 0.002 µM) of 0.305. For the same cell line, the relative viability (Ponatinib + Phenformin; first compound 0.006325 µM) was 0.33, the relative viability (Ponatinib + Phenformin; first compound 0.06325 µM) was 0.366 and the relative viability (Ponatinib + Phenformin; first compound 0.2 µM) was 0.317. For the same cell line, the relative viability (Pazopanib + Luminespib; first compound 0.01 µM) was 1.08, the relative viability (Pazopanib + Luminespib; first compound 0.03162 µM) was 0.994 and the relative viability (Pazopanib + Luminespib; first compound 0.1 µM) was 1.06. It also gave a relative viability (Pazopanib + Luminespib; first compound 0.3162 µM) of 0.98 and a relative viability (Pazopanib + Luminespib; first compound 1 µM) of 1.09.
